Assay results as given in PMC11249776, “Synthesis of Structural ADP-Ribose Analogues as Inhibitors for SARS-CoV-2 Macrodomain 1” (Organic Letters, 2024).

Biological target: T1, SARS-CoV-2 NSP3 macrodomain (Severe acute respiratory syndrome coronavirus 2, UniProt P0DTD1)
T1 construct: SARS-CoV-2 NSP3 macrodomain
Test: Mac1 HTRF assay (displacement of ADP-ribose conjugated biotin peptide)
Format: binding
Details: for Mac1 inhibition / affinity in words: qualitative statement

Compound `C#CC1OC(COP(=O)(O)OP(=O)(O)OCC2OC(n3cnc4c(N)ncnc43)C(O)C2O)C(O)C1O` (stereo not shown) [Compound 5] has an IC50 of 2400 ± 200 nM.
`COC1OC(COP(=O)(O)OP(=O)(O)OCC2OC(n3cnc4c(N)ncnc43)C(O)C2O)C(O)C1OCc1ccccc1` (stereo not shown) [Compound 6] was tested, and the IC50 was greater than 200000 nM and the “Mac1 inhibition / affinity in words” value was “poor affinity”.
In the case of `[N-]=[N+]=NC1OC(COP(=O)(O)OP(=O)(O)OCC2OC(n3cnc4c(N)ncnc43)C(O)C2O)C(O)C1OCc1ccccc1` (stereo not shown) [Compound 7], the IC50 is reported as 80000 ± 1700 nM and the “Mac1 inhibition / affinity in words” value is reported as “poor affinity”.
`COC1OC(COP(=O)(O)OP(=O)(O)OCC2OC(n3cnc4c(N)ncnc43)C(O)C2O)C(F)C1O` (stereo not shown) [Compound 8] was tested, and the IC50 was greater than 200000 nM and the “Mac1 inhibition / affinity in words” value was “drastically diminished binding affinity”.
`CON=C1C(COP(=O)(O)OP(=O)(O)OCC2OC(n3cnc4c(N)ncnc43)C(O)C2O)OC(OC)C1O` (stereo not shown) [Compound 9] showed an IC50 greater than 200000 nM.
For `CO[C@H]1O[C@H](COP(=O)(O)OP(=O)(O)OC[C@H]2O[C@@](C#N)(c3ccc4c(N)ncnn34)[C@H](O)[C@@H]2O)[C@@H](O)[C@H]1O` [Compound 10, α-O-methyl-NDPr], the IC50 was 63 ± 5 nM.
In the case of `N#C[C@@]1(c2ccc3c(N)ncnn23)O[C@H](COP(=O)(O)OP(=O)(O)OC[C@H]2O[C@H](N=[N+]=[N-])[C@H](O)[C@@H]2O)[C@@H](O)[C@H]1O` [Compound 11, α-N3-NDPr], the IC50 is reported as 30 ± 1.5 nM.
